The results in this text go back to patent US11981642B1, “4-(4,5-bis(4-bromophenyl)-2-(4-chlorophenyl)-1H-imidazol-1-yl)butanoic acid as an antimicrobial compound” (priority 2023, dated 2024).

This experiment has as its system different microbes (Bacillus cereus, Staphylococcus aureus, Pseudomonas aeruginosa, Escherichia coli, Aspergillus flavus, Chrysosporium keratinophilum). Kind of experiment: Antimicrobial testing, agar plate disc-diffusion method. Type of experiment: cell-based. The note with it: screened against gram-positive and gram-negative bacteria and fungi; result in words only, no inhibition zones printed. The procedure:
The agar plate disc-diffusion method was applied. Sterilized filter papers (6 mm in diameter) were wetted with 10 μL of a solution of 4-(4,5-bis(4-bromophenyl)-2-(4-chlorophenyl)-1H-imidazol-1-yl)butanoic acid (V) to be tested, containing 10 mg/mL in DMSO, and the discs were allowed to air dry. The discs were then placed onto the surface of agar plates (nutrient agar for bacteria and Sabouraud's dextrose agar for fungi) seeded with the test organism. Each plate contained 15 mL of the agar medium, previously seeded with 0.2 mL of the broth culture of each organism pregrown for 18 hours. The plates were incubated at 37° C. for 48 hours, and 72 hours for fungi. The inhibition zones was measured in mm. Discs impregnated with DMSO were used as a control, and its inhibition zone was subtracted from the tested compound actual inhibition zone.
A general note: In agar diffusion tests the substance spreads into inoculated agar from a disc or well.

As to `O=C(O)CCCn1c(-c2ccc(Cl)cc2)nc(-c2ccc(Br)cc2)c1-c1ccc(Br)cc1` [V, 4-(4,5-bis(4-bromophenyl)-2-(4-chlorophenyl)-1H-imidazol-1-yl)butanoic acid], the “antimicrobial activities against different microbes” value was “excellent antimicrobial activities”.
